Results published in patent publication US6156762A, “Indolomorphinan derivative and agent for curing and preventing cerebral disorder” (Toray Industries, Inc., priority 1997, dated 2000).

Tests used:
[1] = test system: cultured nerve cells; assay: Action of protecting cultured nerve cells from glutamic acid toxicity (LDH leakage); type: cell-based, Wistar rat; details: rat fetal cerebral cortex cells, 10 mM glutamic acid, 24 hours, read-out: ED50 (the source's name)
From the text: It is known that when the blood flow to the brain is temporarily clogged due to cerebral ischemia, hypoxia, or an trauma, delayed cerebral neuronal death is induced [Document: Brain Research, Vol. 239, 57 (1982)]. A possible cause of such damage of the cerebral nerve cells is excitatory toxicity due to an excitatory neutotransmitter such as glutamic acid or the like, which is excessively released with ischemia [Document: Trends in Neuroscience, vol. 10, 299 (1987)]. […] This is a problem to be solved by the invention. This action was evaluated by using the in vitro evaluation system which will be described below.
A fetus was taken from the abdomen of a Wistar female rat on the 18 to 19th day of pregnancy under aseptic conditions, and the head of the fetus was opened to extract the brain. The brain was placed in an ice-cooled L-15 medium, and the cerebral cortex was separated under a microscope. The cerebral cortexes of about 30 rats were cut into pieces, and then suspended in 10 ml of a 0.25% trypsin solution and 0.2 ml of a 0.01% DNase solution, followed by culture at 37° C. for 30 minutes. Then, 2 ml of serum was added to the solution, and immediately the resultant mixture was centrifuged at 120 rpm for 2 minutes to separate the precipitates. To the precipitates was added 7 ml of a DF medium (a medium obtained by adding 20 nM of transferrin, 5 μg/ml of insulin, 20 nM of progesterone,60 nM of selenite, 50 U/ml of penicillin, and 50 U/ml of streptomycin to a mixture equivalent amounts of Dulbecco modified Eagle medium and F-12 medium), followed by 20 pipetting operations using a 10-ml plastic pipette to obtain a cell suspension. The cell suspension was filtered with nylon mesh (pore diameter 43 μm) to fractionate isolated cells. The thus-obtained isolated cells were diluted with a DF medium to a concentration of 6.0×10^5 cells/ml, and 500 μl of the diluted cells was inoculated in each of the 48 wells of a 48-well culture plate precoated with polylysine, followed by culture at 37° C. for 1 day in the presence of 5% of CO2. On the 2nd day, the medium was changed to a new DF medium, and 10 μl of a solution of 0.5M glutamic acid in distilled water was added to each of the wells (the final glutamic acid concentration was 10 mM), followed by further culture at 37° C. for 24 hours in the presence 5% of CO2. A test compound was dissolved in distilled water, 10% or 100% DMSO or 10% methanol, and 5 μl of the solution was added to each of the wells immediately before glutamic acid was added. As an index of nerve cell damage, the enzyme activity of lactic acid dehydrogenase (LDH) leaking from the damaged cells into the medium was measured. For each of the test compounds, the LDH leakage was measured at each of concentrations to determine a dose-response curve by the modified Cochran-Armitige method. The 50% effective dose (ED50) of each of the test compounds we determined from the curve.

[2] = test system: middle cerebral artery ischemia model of rat; assay: Infarction inhibiting action in middle cerebral artery ischemia (MCAo-recirculation) model of rat; type: in vivo; details: ip, 24 h, 3 mg/kg i.p. 10 minutes before occlusion and 1 hour after recirculation, infarction volume one day after, vs control group, read-out: Rate of inhibition of infarction
From the text: It is also known that, in this way, in the acute stage of cerebral infarction, the lesion proceeds to the peripheral tissue from the core of infarction, and death of the nerve cells is extended with the passage of several days. This possible not only extends and creates grave aftereffects, and causes loss of motor and mental function, but also finally critically influences on the life. As an in vivo experimental model of cerebral infarction which is capable of precisely evaluating the clinical effect of a medicine in conformity with clinical conditions of the disease of a patient of cerebral infarction, the middle cerebral artery occlusion (MCAo)-recirculation model comprising an embolus with a yarn using Wister rates may be used [Document: Japan Journal of Stroke, vol. 8, 1 (1986)]. […] This action was evaluated by applying the MCAo model by the method which will be described below.
In rats of 10 weeks old, after etherization, a median incision of the cervical region was made up to the right carotid artery bifurcation under 1.0% halothane anesthetization with care to preserve the vagus nerves. The common carotid artery and the external carotid artery were separated from the periphery connective tissue with the right carotid artery bifurcation as the center, and each of the arteries was ligated by a 6-0 silk yarn (Eto yarn). Further, a yarn was wound on the internal carotid artery origin in preparation for ligation and fixing after insertion of the embolus. Next, the common carotid artery was incised, and the embolus was inserted from the common carotid artery to the internal carotid artery by about 15 to 16 mm, and ligated and fixed to the internal carotid artery by the silk yarn at the end thereof near the nylon yarn. In this operation, the end of the embolus was inserted into the anterior cerebral artery by about 1 to 2 mm beyond the middle cerebral artery bifurcation, and the inlet of the middle cerebral artery was occluded by the body (resin part) of the embolus for 1 hours. In recirculation, the embolus with a yarn was removed to recirculate the blood flow to the middle cerebral artery. 3 mg/kg of each of test compounds was intraperitoneally administered 10 minutes before occlusion and 1 hour after recirculation of the blood flow. One day after occlusion and recirculation, the whole body was perfused with physiologic saline through the heart, and the brain was extracted. The extracted brain was cooled with ice and water for 5 minutes, and cut at intervals of 2.0 mm to form 7 sections of the cerebral coronal surface. Each of the sections was stained with TTC (Triphenyltetrazolium Chloride), and fixed by a 5% neutral buffer formalin solution. In each of the sections, the infarction area in the right cerebral hemisphere was measured by an image analyzer (Olympus), and the infarction was evaluated by volume (mm^3). The infarction volume was compared with the infarction volume of a control group to calculate the rate of inhibition of infarction.

| SMILES | EC50 [1] [nM] | inhibition in vivo at 3 mg/kg [2] [%] |
| --- | --- | --- |
| COc1ccc2c3c1O[C@H]1c4[nH]c5c(ccc6ccccc65)c4C[C@@]4(O)[C@@H](C2)N(CC2CC2)CC[C@]314 [Compound 17, 17-cyclopropylmethyl-3-methoxy-14β-hydroxy-6,7-dehydro-4,5α-epoxy-6,7,2',3'-(6',7'-benzoindolo)morphinan] | 120 | 56 |
| Oc1ccc2c3c1O[C@H]1c4[nH]c5c(ccc6cccc(Cl)c65)c4C[C@@]4(O)[C@@H](C2)N(CC2CC2)CC[C@]314 [Compound 12, 17-cyclopropylmethyl-3,14β-dihydroxy-6,7-dehydro-4,5α-epoxy-6,7,2',3'-(3"-chloro-6',7'-benzoindolo)morphinan] | 35 | 67 |
| O[C@@]12Cc3c([nH]c4c3ccc3ccccc34)[C@@H]3Oc4cccc5c4[C@@]31CCN(CC1CC1)[C@@H]2C5 [Compound 18, 17-cyclopropylmethyl-14β-hydroxy-6,7-dehydro-4,5α-epoxy-6,7,2',3'-(6',7'-benzoindolo)morphinan] | 900 | 23 |
| Oc1ccc2c3c1O[C@H]1c4[nH]c5c(cc(F)c6ccccc65)c4C[C@@]4(O)[C@@H](C2)N(CC2CC2)CC[C@]314 [Compound 14, 17-cyclopropylmethyl-3,14β-dihydroxy-6,7-dehydro-4,5α-epoxy-6,7,2',3'-(5'-fluoro-6',7'-benzoindolo)morphinan] | 86 | 29 |
| Oc1ccc2c3c1O[C@H]1c4c(c5ccc6ccccc6c5n4Cc4ccc(F)cc4)C[C@@]4(O)[C@@H](C2)N(CC2CC2)CC[C@]314 [Compound 70] | 15 | 34 |
| Cn1c2c(c3ccc4ccccc4c31)C[C@@]1(O)[C@H]3Cc4ccc(O)c5c4[C@@]1(CCN3CC1CC1)[C@H]2O5 [Compound 72, 17-cyclopropylmethyl-3,14β-dihydroxy-6,7-dehydro-4,5α-epoxy-6,7,2',3'-(1'-methyl-6',7'-benzoindolo)morphinan] | 26 | 85 |
| Oc1ccc2c3c1O[C@H]1c4[nH]c5c6c(ccc5c4C[C@@]4(O)[C@@H](C2)N(CC2CC2)CC[C@]314)-c1ccccc1C6 [Compound 20, 17-cyclopropylmethyl-3,14β-dihydroxy-6,7-dehydro-4,5α-epoxy-6,7,2',3'-(6',7',3",2"-indenoindolo)morphinan] | 27 | 10 |
| Oc1ccc2c3c1O[C@H]1c4[nH]c5c(cc(Br)c6ccccc65)c4C[C@@]4(O)[C@@H](C2)N(CC2CC2)CC[C@]314 [Compound 9, 17-cyclopropylmethyl-3,14β-dihydroxy-6,7-dehydro-4,5α-epoxy-6,7,2',3'-(5'-bromo-6',7'-benzoindolo)morphinan] | 110 | 9 |
| Oc1ccc2c3c1O[C@H]1c4[nH]c5c(cc6c7c(cccc75)CC6)c4C[C@@]4(O)[C@@H](C2)N(CC2CC2)CC[C@]314 [Compound 3, 17-cyclopropylmethyl-3,14β-dihydroxy-6,7-dehydro-4,5α-epoxy-6,7,2',3'-(5',6"-ethano-6',7'-benzoindolo)morphinan] | 53 | 54 |
| CN1CC[C@]23c4c5ccc(O)c4O[C@H]2c2[nH]c4c(ccc6ccccc64)c2C[C@@]3(O)[C@H]1C5 [Compound 74, 17-methyl-3,14β-dihydroxy-6,7-dehydro-4,5α-epoxy-6,7,2',3'-(6',7'-benzoindolo)morphinan] |  | 27 |
| Oc1ccc2c3c1O[C@H]1c4[nH]c5c(ccc6ccccc65)c4C[C@@]4(O)[C@@H](C2)N(CC2CC2)CC[C@]314 [Compound 2, 17-cyclopropylmethyl-3,14β-dihydroxy-6,7-dehydro-4,5α-epoxy-6,7,2',3'-(6',7'-benzoindolo)morphinan] | 33 | 72 |
| Oc1ccc2c3c1O[C@H]1c4[nH]c5ccccc5c4C[C@@]4(O)[C@@H](C2)N(CC2CC2)CC[C@]314 [Compound 1, 17-cyclopropylmethyl-3,14β-dihydroxy-6,7-dehydro-4,5α-epoxy-6,7,2',3'-indolomorphinan] |  | 23 |
| Oc1ccc2c3c1O[C@H]1c4[nH]c5c(ccc6ccccc65)c4C[C@@]4(O)[C@@H](C2)NCC[C@]314 [Compound 73, 3, 14β-dihydroxy-6,7-dehydro-4,5α-epoxy-6,7,2',3'-(6',7'-benzoindolo)morphinan] |  | 34 |
| COc1ccc2c3c1O[C@H]1c4[nH]c5ccc(C(C)(C)C)cc5c4C[C@@]4(O)[C@@H](C2)N(CC2CC2)CC[C@]314 [Compound 16, 17-cyclopropylmethyl-3-methoxy-14β-hydroxy-6,7-dehydro-4,5α-epoxy-6,7,2',3'-(5'-t-butylindolo)morphinan] |  | 22 |
| Oc1ccc2c3c1O[C@H]1c4[nH]c5ccc6ccccc6c5c4C[C@@]4(O)[C@@H](C2)N(CC2CC2)CC[C@]314 [Compound 8, 17-cyclopropylmethyl-3,14β-dihydroxy-6,7-dehydro-4,5α-epoxy-6,7,2',3'-(4',5'-benzoindolo)morphinan] | 200 | 49 |
| Oc1ccc2c3c1O[C@H]1c4c(c5cc6c7c(cccc7c5n4Cc4ccccc4)-c4ccccc4-6)C[C@@]4(O)[C@@H](C2)N(CC2CC2)CC[C@]314 [Compound 79, 17-cyclopropylmethyl-3,14β-dihydroxy-6,7-dehydro-4,5α-epoxy-6,7,2',3'-(1'-benzyl-5',6"-benzeno-6',7'-benzoindolo)morphinan] | 190 | 26 |
| CS(=O)(=O)n1c2c(c3ccc4ccccc4c31)C[C@@]1(O)[C@H]3Cc4ccc(O)c5c4[C@@]1(CCN3CC1CC1)[C@H]2O5 [Compound 78, 17-cyclopropylmethyl-3,14β-dihydroxy-6,7-dehydro-4,5α-epoxy-6,7,2',3'-(1'-methylsulfonyl 6',7'-benzoindolo)morphinan] |  | 55 |
| O=C(CCCCCc1ccccc1)NCCCn1c2c(c3ccccc31)C[C@@]1(O)[C@H]3Cc4ccc(O)c5c4[C@@]1(CCN3CC1CC1)[C@H]2O5 [Compound 62, 17-cyclopropylmethyl-3,14β-dihydroxy-6,7-dehydro-4,5α-epoxy-6,7,2',3'-[1'-[3-(6-phenylhexanoamido)propyl]indolo]morphinan] |  | 10 |
